For this test, the target named is T1, Kv3.1 (Homo sapiens, UniProt P48547).
T1 construct: expressed in transfected cells
T1 sequence (P48547 1-511): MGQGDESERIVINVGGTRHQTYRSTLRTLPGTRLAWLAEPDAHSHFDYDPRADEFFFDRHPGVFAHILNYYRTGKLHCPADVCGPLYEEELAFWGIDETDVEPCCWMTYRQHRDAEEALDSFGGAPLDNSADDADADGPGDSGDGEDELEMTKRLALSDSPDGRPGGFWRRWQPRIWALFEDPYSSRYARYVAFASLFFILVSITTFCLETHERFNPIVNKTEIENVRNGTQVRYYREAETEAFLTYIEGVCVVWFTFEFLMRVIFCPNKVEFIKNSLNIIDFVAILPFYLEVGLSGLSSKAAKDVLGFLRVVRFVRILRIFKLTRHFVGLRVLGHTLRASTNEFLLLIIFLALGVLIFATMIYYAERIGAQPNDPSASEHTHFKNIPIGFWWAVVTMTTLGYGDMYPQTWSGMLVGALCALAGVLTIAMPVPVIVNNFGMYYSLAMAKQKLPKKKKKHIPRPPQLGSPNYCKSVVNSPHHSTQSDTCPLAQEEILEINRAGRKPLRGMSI
Briefly: Kv3.1 automated patch clamp (Qube) cellular electrophysiology assay. Format: cell-based. The source says:
In vitro, high-throughput cellular electrophysiology was employed to detect voltage-dependence of compounds in single concentration screening and IC50 determination for library and medicinal chemistry profiling compounds in 384 well plates.
HEK-293 cell lines stably expressing coding DNA for Kv3.1, 3.2, 3.3, and 3.4 were validated on an automated patch clamp (APC) platform, Qube from Sophion/Denmark. Cell cultures were maintained in DMEM cell growth media containing FBS and appropriate antibiotics at 37° C., 5% CO2 for a maximum of 20 passages. Intra- and extracellular (w. glucose) HEPES buffers containing various monovalent and divalent cations were adjusted to pH 7.2 and 7.4 respectively. Cells were harvested at 75% confluency and resuspended in extracellular buffer and added to wells. Negative pressure was applied to establish whole cell recording by APC.
Currents through activated channels were measured directly by APC by employing depolarization voltage steps. Baseline currents were established for the voltage-dependence protocols using a −80 mV holding potential and multiple test pulses at +10 mV or by 10 mV steps from −80 mV to +40 mV, respectively. Test compounds were added after baseline recordings followed by a 10 min incubation, and voltage-dependency protocol recordings. Data was corrected for baseline and leak currents (well based) and normalized for % potentiation (plate based). Two previously reported Kv3 positive modulators of varying potencies were used for run to run and plate to plate quality controls. A non-selective and potent positive modulator was used as a positive control. Percent potentiation was analyzed at −20 mV of the voltage-dependency protocol and voltage shift in channel activation was analyzed using the voltage step protocol from −80 mV to +40 mV. Selectivity was assessed against Kv3.2, Kv3.3, and Kv3.4 overexpressing cell lines using similar methods.
In general terms: The patch-clamp technique gives a direct electrical read-out from membranes.

Like-named read-outs stand apart in the source and are kept apart here.

Consider `O=c1[nH]c2cccnc2n1-c1ccc(Oc2cccc3c2C2(CC2)CO3)nc1` [Example 1, 3-(6-spiro[2H-benzofuran-3,1′-cyclopropane]-4-yloxy-3-pyridyl)-1H-imidazo[4,5-b]pyridin-2-one], for which the EC50 (as a rule, the concentration that produces a half-maximal response) came out at 0.3 µM. As for `O=c1[nH]c2cncnc2n1-c1ccc(Oc2cccc3c2C2(CC2)CO3)nc1` [Example 2, 9-(6-spiro[2H-benzofuran-3,1′-cyclopropane]-4-yloxy-3-pyridyl)-7H-purin-8-one], the EC50 came out at 0.8 µM. Same read-out and setting: the figure for `Cc1ccc(Oc2ccc(-n3c(=O)[nH]c4cccnc43)cn2)cc1Cl` [Example 3, 3-[6-(3-chloro-4-methyl-phenoxy)-3-pyridyl]-1H-imidazo[4,5-b]pyridin-2-one] is 1.6 µM; for `CC(C)(C)c1cc(C#N)ccc1Oc1ccc(-n2c(=O)[nH]c3cccnc32)cn1` [Example 4, 3-tert-butyl-4-[[5-(2-oxo-1H-imidazo[4,5-b]pyridin-3-yl)-2-pyridyl]oxy]benzonitrile] it is 2 µM; for `CC(C)c1cc(Oc2ccc(-n3c(=O)[nH]c4cccnc43)cn2)ccc1C#N` [Example 5, 2-isopropyl-4-[[5-(2-oxo-1H-imidazo[4,5-b]pyridin-3-yl)-2-pyridyl]oxy]benzonitrile] it is 2.7 µM. In the case of `O=c1[nH]c2cnccc2n1-c1ccc(Oc2cccc3c2C2(CC2)CO3)nc1` [Example 6, 1-(6-spiro[2H-benzofuran-3,1′-cyclopropane]-4-yloxy-3-pyridyl)-3H-imidazo[4,5-c]pyridin-2-one], the EC50 was determined as 2 µM. On to `COc1cc(Oc2ccc(-n3c(=O)[nH]c4cc(F)cnc43)cn2)ccc1C` [Example 7, 6-fluoro-3-[6-(3-methoxy-4-methyl-phenoxy)-3-pyridyl]-1H-imidazo[4,5-b]pyridin-2-one], for which the EC50 was 2.2 µM. As to `O=c1[nH]c2cccnc2n1-c1ccc(Oc2cccc3c2C2(CC2)CO3)c(F)c1` [Example 8, 3-(3-fluoro-4-spiro[2H-benzofuran-3,1′-cyclopropane]-4-yloxy-phenyl)-1H-imidazo[4,5-b]pyridin-2-one], the EC50 stood at 2.3 µM. On the same count and under the same terms, then `COc1cc(Oc2ccc(-n3c(=O)[nH]c4cc(C)cnc43)cn2)ccc1C` [Example 9, 3-[6-(3-methoxy-4-methyl-phenoxy)-3-pyridyl]-6-methyl-1H-imidazo[4,5-b]pyridin-2-one], with 2.5 µM. With `O=c1[nH]c2ccccc2n1-c1ccc(Oc2cccc3c2C2(CC2)CO3)nc1` [Example 10, 3-(6-spiro[2H-benzofuran-3,1′-cyclopropane]-4-yloxy-3-pyridyl)-1H-benzimidazol-2-one], the EC50 was 2.5 µM. On the same count and under the same terms, the figure for `Cc1cc(-n2c(=O)[nH]c3ccccc32)cnc1Oc1cccc2c1C1(CC1)CO2` [Example 11, 3-(5-methyl-6-spiro[2H-benzofuran-3,1′-cyclopropane]-4-yloxy-3-pyridyl)-1H-benzimidazol-2-one] is 2.8 µM; for `O=c1[nH]c2ccncc2n1-c1ccc(Oc2cccc3c2C2(CC2)CO3)nc1` [Example 12, 3-(6-spiro[2H-benzofuran-3,1′-cyclopropane]-4-yloxy-3-pyridyl)-1H-imidazo[4,5-c]pyridin-2-one] it is 3.9 µM.

As for `O=c1[nH]c2ncccc2n1-c1ccc(Oc2cccc3c2C2(CC2)CO3)nc1` [Example 13, 1-(6-spiro[2H-benzofuran-3,1′-cyclopropane]-4-yloxy-3-pyridyl)-3H-imidazo[4,5-b]pyridin-2-one], the EC50 amounted to 3.4 µM.

Regarding `CC(C)c1cc(Oc2ccc(-n3c(=O)[nH]c4cc(F)cnc43)cn2)ccc1C#N` [Example 14, 4-[[5-(6-fluoro-2-oxo-1H-imidazo[4,5-b]pyridin-3-yl)-2-pyridyl]oxy]-2-isopropyl-benzonitrile], the EC50 worked out at 2.7 µM. As to `CC(C)c1cc(Oc2ccc(-n3c(=O)[nH]c4cncnc43)cn2)ccc1C#N` [Example 15, 2-isopropyl-4-[[5-(8-oxo-7H-purin-9-yl)-2-pyridyl]oxy]benzonitrile], the EC50 is 3.5 µM. For `CC(C)c1cc(Oc2ccc(-n3c(=O)[nH]c4cnccc43)cn2)ccc1C#N` [Example 16, 2-isopropyl-4-[[5-(2-oxo-3H-imidazo[4,5-c]pyridin-1-yl)-2-pyridyl]oxy]benzonitrile], the EC50 was 5.9 µM. On the same count and under the same terms, then `CC(C)c1cc(Oc2ccc(-n3c(=O)[nH]c4cccnc43)cc2F)ccc1C#N` [Example 17, 4-[2-fluoro-4-(2-oxo-1H-imidazo[4,5-b]pyridin-3-yl)phenoxy]-2-isopropyl-benzonitrile], with 4.7 µM; and `CC(C)c1cc(Oc2ccc(-n3c(=O)[nH]c4cncnc43)cc2F)ccc1C#N` [Example 18, 4-[2-fluoro-4-(8-oxo-7H-purin-9-yl)phenoxy]-2-isopropyl-benzonitrile], with 18.8 µM. Still for that read-out and setting: the figure for `CC(C)c1cc(Oc2ccc(-n3c(=O)[nH]c4ccccc43)cn2)ccc1C#N` [Example 19, 2-isopropyl-4-[[5-(2-oxo-3H-benzimidazol-1-yl)-2-pyridyl]oxy]benzonitrile] is 15.6 µM; for `CC(C)(C)c1cc(C#N)ccc1Oc1ccc(-n2c(=O)[nH]c3ccccc32)cn1` [Example 20, 3-tert-butyl-4-[[5-(2-oxo-3H-benzimidazol-1-yl)-2-pyridyl]oxy]benzonitrile] it is 12.2 µM. As for `CCc1cc(Oc2ccc(-n3c(=O)[nH]c4ccccc43)cn2)ccc1C#N` [Example 21, 2-ethyl-4-[[5-(2-oxo-3H-benzimidazol-1-yl)-2-pyridyl]oxy]benzonitrile], the EC50 came out at 18.5 µM. Same read-out and setting: then `CC(C)Oc1cc(Oc2ccc(-n3c(=O)[nH]c4ccccc43)cn2)ccc1C#N` [Example 22, 2-isopropoxy-4-[[5-(2-oxo-3H-benzimidazol-1-yl)-2-pyridyl]oxy]benzonitrile], with 20.7 µM.

Take `O=c1[nH]c2ccccc2n1-c1ccc(Oc2cccc3c2C2(CC2)CO3)c(F)c1` [Example 23, 3-(3-fluoro-4-spiro[2H-benzofuran-3,1′-cyclopropane]-4-yloxy-phenyl)-1H-benzimidazol-2-one]: the EC50 was 3.5 µM.

With `CC(C)(C)c1cc(C#N)ccc1Oc1ccc(-n2c(=O)[nH]c3cncnc32)cn1` [Example 24, 3-tert-butyl-4-[[5-(8-oxo-7H-purin-9-yl)-2-pyridyl]oxy]benzonitrile], the EC50 was 4 µM. Take `Cc1ccc(Oc2ccc(-n3c(=O)[nH]c4cncnc43)cn2)cc1OC(F)(F)F` [Example 25, 9-[6-[4-methyl-3-(trifluoromethoxy)phenoxy]-3-pyridyl]-7H-purin-8-one]: the EC50 (HEK-293 cell line stably expressing Kv3.1, automated patch clamp, 10 min incubation, read-out: EC50 Kv3.1) is 5.9 µM.

For the compound `CC(C)(C)c1cc(C#N)ccc1Oc1ccc(-n2c(=O)[nH]c3cnccc32)cn1` [Example 26, 3-tert-butyl-4-[[5-(2-oxo-3H-imidazo[4,5-c]pyridin-1-yl)-2-pyridyl]oxy]benzonitrile], the 50% effective concentration (EC50) amounted to 4.7 µM.

For the compound `CC(C)(C)c1cc(C#N)ccc1Oc1ccc(-n2c(=O)[nH]c3cc(F)cnc32)cn1` [Example 27, 3-tert-butyl-4-[[5-(6-fluoro-2-oxo-1H-imidazo[4,5-b]pyridin-3-yl)-2-pyridyl]oxy]benzonitrile], the EC50 is 5.5 µM. As for `COc1cc(Oc2ccc(-n3c(=O)[nH]c4cc(Cl)cnc43)cn2)ccc1C` [Example 28, 6-chloro-3-[6-(3-methoxy-4-methyl-phenoxy)-3-pyridyl]-1H-imidazo[4,5-b]pyridin-2-one], the EC50 is 10 µM. Same read-out and setting: then `COc1cc(Oc2ccc(-n3c(=O)[nH]c4cc(C(F)(F)F)cnc43)cn2)ccc1C` [Example 29, 3-[6-(3-methoxy-4-methyl-phenoxy)-3-pyridyl]-6-(trifluoromethyl)-1H-imidazo[4,5-b]pyridin-2-one], with 5.7 µM. The same measure, in the same setting: the figure for `COc1cc(Oc2ccc(-n3c(=O)[nH]c4ncccc43)cn2)ccc1C` [Example 30, 1-[6-(3-methoxy-4-methyl-phenoxy)-3-pyridyl]-3H-imidazo[4,5-b]pyridin-2-one] is 19.2 µM; for `COc1cc(Oc2ccc(-n3c(=O)[nH]c4ccncc43)cn2)ccc1C` [Example 31, 3-[6-(3-methoxy-4-methyl-phenoxy)-3-pyridyl]-1H-imidazo[4,5-c]pyridin-2-one] it is 21 µM; for `COc1cc(Oc2ccc(-n3c(=O)[nH]c4cnccc43)cn2)ccc1C` [Example 32, 1-[6-(3-methoxy-4-methyl-phenoxy)-3-pyridyl]-3H-imidazo[4,5-c]pyridin-2-one] it is 4.4 µM.

Source of the values: US20230124087A1, “KV3 ENHANCERS FOR THE TREATMENT OF COGNITIVE DISORDERS” (Hoffmann-La Roche Inc., priority 2020, published 2023).
